# In patent US8916565B2, “Pyrrolopyrazine-spirocyclic piperidine amides as modulators of ion channels” (priority 2011, dated 2014):
# Target: human NaV subtype, like NaV 1.7 (Homo sapiens, UniProt Q15858)
# Test: E-VIPR optical membrane potential assay with electrical stimulation
# Type: cell-based
# Conditions: active against one or more sodium channels; Table 3 does not name the assay or NaV subtype; read-out: Binned Activity Data (IC50)
# Chain of human NaV subtype, like NaV 1.7 (Q15858 whole entry): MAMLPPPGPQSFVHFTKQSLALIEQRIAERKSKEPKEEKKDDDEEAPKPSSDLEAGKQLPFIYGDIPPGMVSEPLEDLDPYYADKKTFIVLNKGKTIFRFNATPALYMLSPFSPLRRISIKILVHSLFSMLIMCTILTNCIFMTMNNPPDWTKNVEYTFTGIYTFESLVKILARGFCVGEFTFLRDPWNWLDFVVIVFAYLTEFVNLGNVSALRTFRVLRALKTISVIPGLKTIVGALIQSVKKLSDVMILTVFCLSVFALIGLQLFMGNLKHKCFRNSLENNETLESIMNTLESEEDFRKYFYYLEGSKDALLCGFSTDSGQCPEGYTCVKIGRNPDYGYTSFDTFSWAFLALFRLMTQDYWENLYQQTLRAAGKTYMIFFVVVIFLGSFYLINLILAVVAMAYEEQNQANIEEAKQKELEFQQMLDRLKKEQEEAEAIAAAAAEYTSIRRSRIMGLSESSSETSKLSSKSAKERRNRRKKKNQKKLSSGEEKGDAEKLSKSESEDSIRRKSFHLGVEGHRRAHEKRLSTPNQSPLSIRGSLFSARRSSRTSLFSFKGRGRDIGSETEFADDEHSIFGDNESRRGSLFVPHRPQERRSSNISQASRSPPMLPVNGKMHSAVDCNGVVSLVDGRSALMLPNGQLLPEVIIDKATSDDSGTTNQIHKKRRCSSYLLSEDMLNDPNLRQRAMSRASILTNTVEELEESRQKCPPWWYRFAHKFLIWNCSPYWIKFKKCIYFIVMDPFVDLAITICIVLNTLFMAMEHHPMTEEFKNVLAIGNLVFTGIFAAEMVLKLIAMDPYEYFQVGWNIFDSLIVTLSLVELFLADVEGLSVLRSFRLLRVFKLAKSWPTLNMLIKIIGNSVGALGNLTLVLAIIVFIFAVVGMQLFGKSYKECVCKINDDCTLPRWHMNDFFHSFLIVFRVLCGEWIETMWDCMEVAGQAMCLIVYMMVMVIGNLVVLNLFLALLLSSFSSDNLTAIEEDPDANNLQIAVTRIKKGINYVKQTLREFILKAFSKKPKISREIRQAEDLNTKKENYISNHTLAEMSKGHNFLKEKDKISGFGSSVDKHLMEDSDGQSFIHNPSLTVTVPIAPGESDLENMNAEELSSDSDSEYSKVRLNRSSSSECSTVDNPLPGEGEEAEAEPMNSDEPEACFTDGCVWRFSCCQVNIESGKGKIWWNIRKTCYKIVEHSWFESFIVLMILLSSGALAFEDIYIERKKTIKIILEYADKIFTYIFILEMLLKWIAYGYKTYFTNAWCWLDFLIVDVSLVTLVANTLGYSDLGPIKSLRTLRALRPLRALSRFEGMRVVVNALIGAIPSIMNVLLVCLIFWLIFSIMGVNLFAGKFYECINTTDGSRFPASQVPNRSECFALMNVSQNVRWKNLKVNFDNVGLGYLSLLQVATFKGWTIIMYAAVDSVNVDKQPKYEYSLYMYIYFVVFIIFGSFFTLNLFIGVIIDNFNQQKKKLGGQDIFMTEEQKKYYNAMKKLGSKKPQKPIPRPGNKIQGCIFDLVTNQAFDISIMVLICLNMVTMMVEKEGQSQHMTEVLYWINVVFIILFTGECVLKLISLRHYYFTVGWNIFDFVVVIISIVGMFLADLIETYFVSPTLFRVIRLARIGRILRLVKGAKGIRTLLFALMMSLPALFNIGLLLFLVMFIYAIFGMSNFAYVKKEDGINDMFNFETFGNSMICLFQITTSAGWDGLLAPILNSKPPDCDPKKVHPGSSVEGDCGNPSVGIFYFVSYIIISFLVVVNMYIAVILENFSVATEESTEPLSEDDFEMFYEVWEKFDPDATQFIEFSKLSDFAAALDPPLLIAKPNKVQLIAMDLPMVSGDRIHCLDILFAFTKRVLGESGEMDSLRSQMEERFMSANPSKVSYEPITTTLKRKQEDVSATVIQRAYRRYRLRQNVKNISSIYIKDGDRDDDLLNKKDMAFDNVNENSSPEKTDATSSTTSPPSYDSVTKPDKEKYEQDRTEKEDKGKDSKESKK
row,IC50 [µM],Compound
1,> 5,COCC#Cc1ccc(C(=O)N2CCC3(CC2)c2ccc(C(C)=O)n2CCN3C)cc1F [Compound 615]
2,≤ 2,CC1(C)Cn2c(C(=O)C(F)(F)F)ccc2C2(CCN(C(=O)c3ccc(COCC(F)(F)F)cc3)CC2)N1 [Compound 41]
3,2 to 5,COc1cc(C(=O)N2CC[C@@]3(c4ccc(C(F)(F)F)n4CCN3C)[C@@H](C)C2)ccc1OC(C)C [Compound 429]
4,≤ 2,CCCCOc1ccc(C(=O)N2CCC3(CC2)c2ccc(C(C)=O)n2CCN3C)cc1OC [Compound 699]
5,≤ 2,C[C@H]1Cn2c(C(=O)C(F)(F)F)ccc2C2(CCN(C(=O)c3ccc(S(=O)(=O)C(C)(C)C)cc3)CC2)N1C [Compound 300]
6,≤ 2,COc1cc(C(=O)N2CCC3(CC2)c2ccc(C(F)(F)F)n2CCN3C)ccc1OC(C)C [Compound 443]
7,> 5,COc1ncccc1-c1ccc(C(=O)N2CCC3(CC2)c2ccc(C(=O)C(F)(F)F)n2CCN3C)cc1C [Compound 514]
8,≤ 2,Cc1cc(C(=O)N2CCC3(CC2)NC(C)(C)Cn2c(C(F)(F)F)ccc23)ccc1OC(C)C [Compound 598]
9,≤ 2,Cc1cc(C(=O)N2CCC3(CC2)c2ccc(C(=O)C(C)(C)C)n2CCN3C)ccc1C(C)(C)O [Compound 523]
10,≤ 2,CN1CCn2c(C(F)(F)F)ccc2C12CCN(C(=O)c1cccnc1N1CCCC1)CC2 [Compound 305]
11,≤ 2,COc1cc(C(=O)N2CCC3(CC2)NC(C)(C)Cn2c(C(F)(F)F)ccc23)ccc1OC(C)(C)C [Compound 667]
12,≤ 2,COc1ccc(C(=O)N2CCC3(CC2)c2ccc(C(=O)C(C)C)n2CCN3C)cc1C(F)(F)F [Compound 735]
13,≤ 2,CC(C)Oc1ccc(C(=O)N2CCC3(CC2)c2ccc(C(=O)C(C)(C)C)n2CCN3C)cc1Cl [Compound 243]
14,≤ 2,CC(C)Oc1ccc(C(=O)N2CCC3(CC2)c2ccc(C(=O)C(F)(F)F)n2C[C@H](C)N3C)cc1F [Compound 439]
15,≤ 2,CC[C@@H](C)Oc1ccc(C(=O)N2CCC3(CC2)c2c(F)cc(C(F)(F)F)n2CCN3C)cc1OC [Compound 513]
16,≤ 2,Cc1cc(C(=O)N2CCC3(CC2)c2ccc(C(=O)C(F)(F)F)n2CCN3C)ccc1OC(C)C [Compound 117]
17,≤ 2,CCOc1ccc(C(=O)N2CCC3(CC2)c2ccc(C(=O)C(F)(F)F)n2CCN3C)cc1OCC [Compound 510]
18,≤ 2,CCCCCc1ccc(C(=O)N2CCC3(CC2)c2ccc(Cl)n2CCN3C)cc1 [Compound 20]
19,2 to 5,CCCOc1cc(C(=O)N2CCC3(CC2)c2ccc(Cl)n2CCN3C)ccc1OC [Compound 229]
20,≤ 2,CC(C)Oc1ccc(C(=O)N2CCC3(CC2)c2ccc(CC(F)(F)F)n2CCN3C)cc1Cl [Compound 11]
21,≤ 2,Cc1cc(-c2ccc(C(=O)N3CCC4(CC3)c3ccc(C(=O)C(F)(F)F)n3CCN4C)cc2C)ccn1 [Compound 169]
22,≤ 2,CN1CCn2c(C(F)(F)F)cc(F)c2C12CCN(C(=O)c1ccc(C(C)(C)O)cc1)CC2 [Compound 193]
23,2 to 5,COc1cc(C(=O)N2CCC3(CC2)N[C@@H](C)Cn2c(C(F)(F)F)ccc23)ccc1OC(C)C [Compound 306]
24,2 to 5,CC(=O)c1ccc2n1CCN(C)C21CCN(C(=O)c2ccc(Cc3ccccc3)cc2)CC1 [Compound 260]
25,≤ 2,COc1cc(C(=O)N2CCC3(CC2)c2ccc(C(=O)C(C)(C)C)n2CCN3C)ccc1OC(C)(C)C [Compound 85]
26,≤ 2,Cc1cc(C(=O)N2CCC3(CC2)c2ccc(Cl)n2CCN3C)ccc1-c1ccccc1 [Compound 424]
27,≤ 2,CCCCOc1ccc(C(=O)N2CCC3(CC2)c2ccc(Cl)n2CCN3C)cc1 [Compound 386]

row,IC50 [µM],Compound
1,≤ 2,COc1cc(C(=O)N2CCC3(CC2)NC(C)(C)Cn2c(C(=O)C(F)(F)F)ccc23)ccc1COCCC(F)(F)F [Compound 480]
2,≤ 2,Cc1nc(C(=O)N2CCC3(CC2)NC(C)(C)Cn2c(C(=O)C(F)(F)F)ccc23)ccc1OC(C)C [Compound 433]
3,≤ 2,CCCCOc1cc(C(=O)N2CCC3(CC2)c2ccc(C(=O)C(F)(F)F)n2CCN3C)ccc1OC [Compound 115]
4,≤ 2,CN1CCn2c(C(=O)C(F)(F)F)ccc2C12CCN(C(=O)c1ccc(OC(F)(F)F)cc1)CC2 [Compound 185]
5,> 5,CCC(c1ccc(F)cc1)n1cc(C(=O)N2CCC3(CC2)c2ccc(C(F)(F)F)n2CCN3C)nn1 (centres unmarked) [Compound 293]
6,2 to 5,CC(=O)c1ccc2n1CCN(C)C21CCN(C(=O)c2ccc(OC(C)C)cc2F)CC1 [Compound 125]
7,≤ 2,COc1nc(C(=O)N2CCC3(CC2)c2ccc(C(=O)C(F)(F)F)n2CCN3C)ccc1OC(C)C [Compound 357]
8,≤ 2,CC(C)Oc1ccc(C(=O)N2CCC3(CC2)c2c(C#N)cc(C(F)(F)F)n2CCN3C)cc1Cl [Compound 548]
9,≤ 2,Cc1cc(C(=O)N2CCC3(CC2)c2c(F)cc(C(F)(F)F)n2CCN3C)ccc1S(=O)(=O)C(C)C [Compound 215]
10,≤ 2,CC(C)CCOc1ccc(C(=O)N2CCC3(CC2)c2ccc(C(=O)C(F)(F)F)n2C(C)CN3C)nc1 (centres unmarked) [Compound 444]
11,≤ 2,CC1(C)Cn2c(C(=O)C(F)(F)F)ccc2C2(CCN(C(=O)c3ccc(S(=O)(=O)C(C)(C)C)cc3)CC2)N1 [Compound 208]
12,> 5,COc1cc(C(=O)N2CCC3(CC2)c2ccc(CC(F)(F)F)n2CCN3C)ccc1OC(C)C [Compound 547]
13,> 5,Cc1cc(C(=O)N2CCC3(CC2)c2cccn2CCN3C)ccc1C(C)(C)O [Compound 457]
14,2 to 5,COc1cc(C(=O)N2CCC3(c4ccc(C(F)(F)F)n4CCN3C)C(C)C2)ccc1OC(C)C (centres unmarked) [Compound 545]
15,≤ 2,CC(C)(O)c1ccc(C(=O)N2CCC3(CC2)c2ccc(C(F)(F)F)n2CCN3CC(F)(F)F)cc1 [Compound 366]
16,≤ 2,CC[C@H](C)Oc1ccc(C(=O)N2CCC3(CC2)c2ccc(C(F)(F)C(F)(F)F)n2CCN3C)cc1OC [Compound 385]
17,≤ 2,CN1CCn2c(C(=O)C(F)(F)F)ccc2C12CCN(C(=O)c1ccc(-c3ccccc3)cc1)CC2 [Compound 172]
18,≤ 2,CN1CCn2c(C(F)(F)F)ccc2C12CCN(C(=O)c1cccc3cccnc13)CC2 [Compound 281]
19,≤ 2,CN1CCn2c(C(=O)C(F)(F)F)ccc2C12CCN(C(=O)c1ccc(C(C)(C)O)c(F)c1)CC2 [Compound 575]
20,> 5,CN1CCn2c(Cl)ccc2C12CCN(C(=O)c1ccc(C3CC3)cc1)CC2 [Compound 400]
21,≤ 2,COc1ccc(C(=O)N2CCC3(CC2)c2ccc(C(=O)c4ccccc4)n2CCN3C)cc1C(F)(F)F [Compound 180]
22,≤ 2,CC(=O)c1ccc2n1CC(C)(C)NC21CCN(C(=O)c2ccc(OC(C)C)cc2F)CC1 [Compound 286]
23,≤ 2,COc1cc(C(=O)N2CCC3(CC2)c2ccc(C(F)(F)C(F)(F)F)n2CCN3C)ccc1OC(C)(C)C [Compound 299]
24,≤ 2,Cc1cc(C(=O)N2CCC3(CC2)c2ccc(C(=O)C(F)(F)F)n2CCN3C)ccc1OCCCO [Compound 148]
25,2 to 5,CC(=O)c1ccc2n1C(C)(C)CN(C)C21CCN(C(=O)c2ccc(OC(C)C)c(C(F)(F)F)c2)CC1 [Compound 536]
26,2 to 5,COC(=O)C1CN(C)C2(CCN(C(=O)c3ccc(OC(C)C)c(OC)c3)CC2)c2ccc(C(F)(F)F)n21 (centres unmarked) [Compound 458]
